Measurements taken from patent US9856279B2 (AGIOS PHARMACEUTICALS, INC, priority 2011, dated 2018).

How the values were obtained:
[1] = tested on: HT1080 cells; experiment: Cellular assay for IDH1m inhibitors: inhibition of 2-HG production (LC-MS, 48 hours) in HT1080 cells; type: cell-based; conditions: Homo sapiens, HT-1080; inhibition of 2-HG production, HT1080 cells; read-out: HT1080 IC50
Outline: (§1)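 Inhibition of 2-HG production was assessed in cells seeded at 5000/well and exposed to compound for 48 h (final DMSO 0.2%). Supernatant 2-HG was analysed by LC-MS.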

[2] = biological target: IDH1 R132H (Homo sapiens, UniProt O75874, R132H); experiment: Assay for IDH1 R132H inhibitors (NADPH/aKG, resazurin detection); type: biochemical; conditions: enzyme assay of Example 12; read-out: IDH1R132H IC50
Outline: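 Read-out is resorufin fluorescence (Ex544/Em590) 5 min after adding a 30 μM resazurin detection mix. Before that, mutant enzyme (0.2 μg/ml in its mix) ran 50 min at room temperature with compound, 8 uM NADPH and 2 mM aKG (mix levels) in Tris pH 7.5 with NaCl, MgCl2, BSA.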

[3] = tested on: U87MG cells; experiment: Cellular assay for IDH1m inhibitors: inhibition of 2-HG production (LC-MS, 48 hours) in U87MG cells; type: cell-based; conditions: Homo sapiens, U-87 MG, inhibition of 2-HG production, U87R132H cells; read-out: U87R132H IC50
Outline: as §1

Chain of IDH1 R132H (O75874 whole entry R132H): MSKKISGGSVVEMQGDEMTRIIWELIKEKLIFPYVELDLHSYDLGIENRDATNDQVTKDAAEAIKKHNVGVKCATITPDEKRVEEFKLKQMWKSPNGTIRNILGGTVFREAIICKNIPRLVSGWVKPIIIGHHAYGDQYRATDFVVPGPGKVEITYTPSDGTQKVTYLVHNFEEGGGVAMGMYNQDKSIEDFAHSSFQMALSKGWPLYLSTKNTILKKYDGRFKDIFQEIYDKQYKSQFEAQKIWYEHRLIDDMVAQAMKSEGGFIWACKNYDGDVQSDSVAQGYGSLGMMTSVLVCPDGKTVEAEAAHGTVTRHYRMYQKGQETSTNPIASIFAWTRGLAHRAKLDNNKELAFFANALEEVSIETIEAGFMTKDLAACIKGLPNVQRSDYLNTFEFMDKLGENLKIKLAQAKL

`COCCC(=O)N1CCN(c2nc(C3CC3)c(-c3cccc(NC(=O)CCl)c3)cc2C#N)C[C@H]1C` [Compound 403, (R)-2-chloro-N-(3-(5-cyano-2-cyclopropyl-6-(4-(3-methoxypropanoyl)-3-methylpiperazin-1-yl)pyridin-3-yl)phenyl)acetamide] gave an IC50 [1] of 0.5 to 1 µM, an IC50 [2] of under 0.5 µM and an IC50 [3] of 0.5 to 1 µM.

Work on `COCCC(=O)N1CCN(c2nc(C3CC3)c(-c3cccc(-c4cn[nH]c4)c3)cc2C#N)C[C@H]1C` [Compound 406, (R)-6-cyclopropyl-2-[4-(3-methoxy-propionyl)-3-methyl-piperazin-1-yl]-5-[3-(1H-pyrazol-4-yl)-phenyl]-nicotinonitrile] yielded an IC50 [1] of 1 to 10 µM, an IC50 [2] of under 0.5 µM and an IC50 [3] of 1 to 10 µM.

In the case of `C=CC(=O)Nc1cccc(C(C)Oc2cc(C#N)c(N3CCN(C(=O)CCOC)[C@H](C)C3)nc2C2CC2)c1` (stereo partly drawn) [Compound 407, N-(3-(1-(5-cyano-2-cyclopropyl-6-((R)-4-(3-methoxypropanoyl)-3-methylpiperazin-1-yl)pyridin-3-yloxy)ethyl)phenyl)acrylamide], the IC50 [1] is reported as under 0.5 µM, the IC50 [2] is reported as under 0.5 µM and the IC50 [3] is reported as under 0.5 µM.

`COCCC(=O)N1CCN(c2nc(C3CC3)c(-c3cncc4ccccc34)c(C)c2C#N)C[C@H]1C` [Compound 408, 6-cyclopropyl-5-(isoquinolin-4-yl)-2-((R)-4-(3-methoxypropanoyl)-3-methylpiperazin-1-yl)-4-methylnicotinonitrile] showed an IC50 [1] of 0.5 to 1 µM, an IC50 [2] of under 0.5 µM and an IC50 [3] of under 0.5 µM.

Compound `COCCC(=O)N1CCN(c2nc(C3CC3)c(-c3cccc4cnccc34)cc2C#N)C[C@H]1C1CC1` [Compound 409, (R)-6-cyclopropyl-2-(3-cyclopropyl-4-(3-methoxypropanoyl)piperazin-1-yl)-5-(isoquinolin-5-yl)nicotinonitrile] has an IC50 [1] of under 0.5 µM, an IC50 [2] of under 0.5 µM and an IC50 [3] of under 0.5 µM.

`COCCC(=O)N1CCN(c2nc(C3CC3)c(-c3cccc4cnccc34)c(C)c2C#N)C[C@H]1C` [Compound 410, 6-cyclopropyl-5-(isoquinolin-5-yl)-2-((R)-4-(3-methoxypropanoyl)-3-methylpiperazin-1-yl)-4-methylnicotinonitrile] gave an IC50 [1] of under 0.5 µM, an IC50 [2] of under 0.5 µM and an IC50 [3] of under 0.5 µM.

Compound `COCCC(=O)N1CCN(c2nc(C3CC3)c(-c3ccc(N)cc3)c(C)c2C#N)C[C@H]1C` [Compound 411, (R)-5-(4-aminophenyl)-6-cyclopropyl-2-(4-(3-methoxypropanoyl)-3-methylpiperazin-1-yl)-4-methylnicotinonitrile] has an IC50 [1] of 0.5 to 1 µM, an IC50 [2] of under 0.5 µM and an IC50 [3] of 0.5 to 1 µM.

For `COCCC(=O)N1CCN(c2nc(C3CC3)c(-c3ccc(NC(C)=O)cc3)cc2C#N)C[C@H]1C` [Compound 412, (R)—N-(4-(5-cyano-2-cyclopropyl-6-(4-(3-methoxypropanoyl)-3-methylpiperazin-1-yl)pyridin-3-yl)phenyl)acetamide], the IC50 [1] was 1 to 10 µM, the IC50 [2] was under 0.5 µM and the IC50 [3] was 0.5 to 1 µM.

`C/C=C/C(=O)Nc1cccc(-c2cc(C#N)c(N3CCN(C(=O)CCOC)[C@H](C)C3)nc2C2CC2)c1` [Compound 415, (R,E)-N-(3-(5-cyano-2-cyclopropyl-6-(4-(3-methoxypropanoyl)-3-methylpiperazin-1-yl)pyridin-3-yl)phenyl)but-2-enamide] gave an IC50 [1] of 1 to 10 µM, an IC50 [2] of under 0.5 µM and an IC50 [3] of 1 to 10 µM.

Compound `COCCC(=O)N1CCN(c2nc(C3CC3)c(-c3cccc(NC(=O)C(C)=O)c3)cc2C#N)C[C@H]1C` [Compound 416, (R)—N-(3-(5-cyano-2-cyclopropyl-6-(4-(3-methoxypropanoyl)-3-methylpiperazin-1-yl)pyridin-3-yl)phenyl)-2-oxopropanamide] has an IC50 [1] of 1 to 10 µM, an IC50 [2] of 0.5 to 1 µM and an IC50 [3] of 0.5 to 1 µM.

`COCCC(=O)N1CCN(c2nc(C3CC3)c(-c3ccc4nc(N)sc4c3)cc2C#N)C[C@H]1C` [Compound 417, (R)-5-(2-amino-benzothiazol-6-yl)-6-cyclopropyl-2-[4-(3-methoxy-propionyl)-3-methyl-piperazin-1-yl]-nicotinonitrile] was tested, and the IC50 [1] was under 0.5 µM, the IC50 [2] was under 0.5 µM and the IC50 [3] was under 0.5 µM.

For `COCCC(=O)N1CCN(c2nc(C3CC3)c(-c3cn(C)c(=O)c4ccccc34)cc2C#N)C[C@H]1C` [Compound 418, (R)-6-cyclopropyl-2-[4-(3-methoxy-propionyl)-3-methyl-piperazin-1-yl]-5-(2-methyl-1-oxo-1,2-dihydro-isoquinolin-4-yl)-nicotinonitrile], the IC50 [1] was under 0.5 µM, the IC50 [2] was under 0.5 µM and the IC50 [3] was under 0.5 µM.

With `COCCC(=O)N1CCN(c2nc(C3CC3)c(-c3cccc4c[n+]([O-])ccc34)cc2C#N)C[C@H]1C` [Compound 420, (R)-5-(5-cyano-2-cyclopropyl-6-(4-(3-methoxypropanoyl)-3-methylpiperazin-1-yl)pyridin-3-yl)isoquinoline 2-oxide] the IC50 [1] was 1 to 10 µM, the IC50 [2] was under 0.5 µM and the IC50 [3] was 1 to 10 µM.

For `CCC(=O)Nc1cccc(-c2cc(C#N)c(N3CCN(C(=O)CCOC)[C@H](C)C3)nc2C2CC2)c1` [Compound 424, (R)—N-(3-(5-cyano-2-cyclopropyl-6-(4-(3-methoxypropanoyl)-3-methylpiperazin-1-yl)pyridin-3-yl)phenyl)propionamide], the IC50 [1] was 0.5 to 1 µM, the IC50 [2] was under 0.5 µM and the IC50 [3] was 0.5 to 1 µM.

Compound `COCCC(=O)N1CCN(c2nc(C3CC3)c(-c3cccc(NC(=O)C4(C#N)CC4)c3)cc2C#N)C[C@H]1C` [Compound 425, (R)-1-cyano-N-(3-(5-cyano-2-cyclopropyl-6-(4-(3-methoxypropanoyl)-3-methylpiperazin-1-yl)pyridin-3-yl)phenyl)cyclopropanecarboxamide] has an IC50 [1] of 1 to 10 µM, an IC50 [2] of 0.5 to 1 µM and an IC50 [3] of 1 to 10 µM.

For `CCc1cc(-c2cc(C#N)c(N3CCN(C(=O)CCOC)[C@H](C)C3)nc2C2CC2)ccn1` [Compound 426, (R)-2-cyclopropyl-2′-ethyl-6-(4-(3-methoxypropanoyl)-3-methylpiperazin-1-yl)-3,4′-bipyridine-5-carbonitrile], the IC50 [1] was 1 to 10 µM, the IC50 [2] was 0.5 to 1 µM and the IC50 [3] was 1 to 10 µM.

`C=CC(=O)N(C)c1cccc(-c2cc(C#N)c(N3CCN(C(=O)CCOC)[C@H](C)C3)nc2C2CC2)c1` [Compound 427] showed an IC50 [1] of under 0.5 µM, an IC50 [2] of under 0.5 µM and an IC50 [3] of under 0.5 µM.

`C#CC(=O)Nc1cccc(-c2cc(C#N)c(N3CCN(C(=O)CCOC)[C@H](C)C3)nc2C2CC2)c1` [Compound 428, (R)—N-(3-(5-cyano-2-cyclopropyl-6-(4-(3-methoxypropanoyl)-3-methylpiperazin-1-yl)pyridin-3-yl)phenyl)propiolamide] showed an IC50 [1] of under 0.5 µM, an IC50 [2] of under 0.5 µM and an IC50 [3] of 0.5 to 1 µM.

Work on `C=CS(=O)(=O)Nc1cccc(-c2cc(C#N)c(N3CCN(C(=O)CCOC)[C@H](C)C3)nc2C2CC2)c1` [Compound 429, (R)—N-(3-(5-cyano-2-cyclopropyl-6-(4-(3-methoxypropanoyl)-3-methylpiperazin-1-yl)pyridin-3-yl)phenyl)ethenesulfonamide] yielded an IC50 [1] of 1 to 10 µM, an IC50 [2] of under 0.5 µM and an IC50 [3] of 1 to 10 µM.

`C=C(F)C(=O)Nc1cccc(-c2cc(C#N)c(N3CCN(C(=O)CCOC)[C@H](C)C3)nc2C2CC2)c1` [Compound 431, (R)—N-(3-(5-cyano-2-cyclopropyl-6-(4-(3-methoxypropanoyl)-3-methylpiperazin-1-yl)pyridin-3-yl)phenyl)-2-fluoroacrylamide] gave an IC50 [1] of 0.5 to 1 µM, an IC50 [2] of 0.5 to 1 µM and an IC50 [3] of 0.5 to 1 µM.

`COCCC(=O)N1CCN(c2nc(C3CC3)c(-c3cccc(NC(=O)C(F)F)c3)cc2C#N)C[C@H]1C` [Compound 432, (R)—N-(3-(5-cyano-2-cyclopropyl-6-(4-(3-methoxypropanoyl)-3-methylpiperazin-1-yl)pyridin-3-yl)phenyl)-2,2-difluoroacetamide] gave an IC50 [1] of 1 to 10 µM, an IC50 [2] of 0.5 to 1 µM and an IC50 [3] of 1 to 10 µM.

With `COCCC(=O)N1CCN(c2nc(C3CC3)c(-c3cccc4cnc(C)cc34)cc2C#N)C[C@H]1C` [Compound 433, (R)-6-cyclopropyl-2-(4-(3-methoxypropanoyl)-3-methylpiperazin-1-yl)-5-(3-methylisoquinolin-5-yl)nicotinonitrile] the IC50 [1] was under 0.5 µM, the IC50 [2] was under 0.5 µM and the IC50 [3] was under 0.5 µM.

In the case of `COCCC(=O)N1CCN(c2nc(C3CC3)c(-c3ccc4nccn4c3)cc2C#N)C[C@H]1C` [Compound 436, (R)-6-cyclopropyl-5-imidazo[1,2-a]pyridin-6-yl-2-[4-(3-methoxy-propionyl)-3-methyl-piperazin-1-yl]-nicotinonitrile], the IC50 [1] is reported as 0.5 to 1 µM, the IC50 [2] is reported as under 0.5 µM and the IC50 [3] is reported as 0.5 to 1 µM.

`COCCC(=O)N1CCN(c2nc(C3CC3)c(-c3cccc4[nH]ncc34)cc2C#N)C[C@H]1C` [Compound 438, (R)-6-cyclopropyl-5-(1H-indazol-4-yl)-2-[4-(3-methoxy-propionyl)-3-methyl-piperazin-1-yl]-nicotinonitrile] showed an IC50 [1] of 1 to 10 µM, an IC50 [2] of under 0.5 µM and an IC50 [3] of 0.5 to 1 µM.

For `COCCC(=O)N1CCN(c2nc(C3CC3)c(-c3cccc4nc(O)ccc34)cc2C#N)C[C@H]1C` [Compound 442, (R)-6-cyclopropyl-5-(2-hydroxyquinolin-5-yl)-2-(4-(3-methoxypropanoyl)-3-methylpiperazin-1-yl)nicotinonitrile], the IC50 [1] was under 0.5 µM, the IC50 [2] was under 0.5 µM and the IC50 [3] was under 0.5 µM.

`C=Cc1cc(-c2cc(C#N)c(N3CCN(C(=O)C4CC4)[C@H](C)C3)nc2C2CC2)ccn1` [Compound 443, (R)-6-(4-(cyclopropanecarbonyl)-3-methylpiperazin-1-yl)-2-cyclopropyl-2′-vinyl-3,4′-bipyridine-5-carbonitrile] gave an IC50 [1] of under 0.5 µM, an IC50 [2] of under 0.5 µM and an IC50 [3] of under 0.5 µM.
